Measured values taken from patent US7667048B2, “Green and orange fluorescent labels and their uses” (Aries Associates, Inc., priority 2002, dated 2010).

Assay: Fluorescence excitation and emission spectra
Type: physicochemical
Conditions: DMSO/Phosphate buffer
Procedure: Fluorescence excitation and emission spectra were measured either using Hitachi F-4500 Fluorescence Spectrophotometer in ratio mode with a rhodamine B quantum counter. For fluorescence polarization experiments, two different detection instruments were used, a BMG Polarstar and an LJL Analyst. Molecular brightness measurements in 96-well and 384-well microtiter plates were performed in the following four instruments: (1) the LJL analyst, (2) the Tecan Ultra, (3) the PerSeptive and, (4) Chromagen's own photon counting instrument as described in U.S. patent application Ser. No. 09/552/803 and its continuation in part.

Row | fluorescence λ em | fluorescence λ ex | Molecule
1 | 553 nm | 510 nm | CN(C)S(=O)(=O)c1cc(O)c2ccc3c(S(=O)(=O)Nc4ccc(CCCC(=O)ON5C(=O)CCC5=O)cc4)cc(S(=O)(=O)N(C)C)c4ccc1c2c34 [compound 17, 1-Hydroxy-3,6-di(dimethylsulfonamido)-8-(4′-succinimidylbutyrate)-phenylsulfonamido-pyrene]

Same assay, conditions: H2O

Row | Molecule | fluorescence λ em | fluorescence λ ex
2 | COC(=O)CCC(=O)Nc1cc(O)c2ccc3c(S(=O)(=O)O)cc(S(=O)(=O)O)c4ccc1c2c34 [compound 4, 3-Hydroxy-6,8-disulfonate-methylsuccinylamino-pyrene] | 492 nm | 450 nm
3 | Nc1cc(O)c2ccc3c(S(=O)(=O)O)cc(S(=O)(=O)O)c4ccc1c2c43 [compound 3, 1-Amino-3-hydroxy-6,8-disulfonate-pyrene] | 492 nm | 450 nm
4 | 3-Hydroxy-6,8-disulfonate-(4′-succinylamino-6′-isothiocyanyl-hexyl)-pyrene [compound 6] | 503 nm | 450 nm
5 | 3-Hydroxy-6,8-disulfonate-(4′-succinyl-6′-aminohexyl)-pyrene [compound 5] | 505 nm | 450 nm

Same assay, conditions: MeOH/H2O

Row | Molecule | fluorescence λ em | fluorescence λ ex
6 | CN(C)S(=O)(=O)c1cc(O)c2ccc3c(S(=O)(=O)N(C)CCCN)cc(S(=O)(=O)N(C)C)c4ccc1c2c43 [compound 15, 1-Hydroxy-3,6-di-(dimethylsulfonamido)-8-(3-aminopropyl-methyl-sulfonamido)-pyrene] | 548 nm | 490 nm
7 | NCCCC(=O)c1cc(O)c2ccc3c(S(=O)(=O)O)cc(S(=O)(=O)O)c4ccc1c2c34 [compound 7, 3-Hydroxy, 6,8-disulfonate-aminoethylacetyl-pyrene] | 502 nm | 450 nm
8 | 1-Hydroxy-3,6-dimethylsulfonamido-8-sulfonate-pyrene [compound 14] | 545 nm | 490 nm
9 | CN(C)S(=O)(=O)c1cc(O)c2ccc3c(S(=O)(=O)N(C)CCCN=C=S)cc(S(=O)(=O)N(C)C)c4ccc1c2c43 [compound 16] | 548 nm | 490 nm
